Source: patent US12029751B2, “Therapeutic agent for nervous system disease” (OSAKA UNIVERSITY, priority 2017, dated 2024)

Test system: cerebral cortical neurons
Test: Neurite outgrowth assay (axon outgrowth promoting effect)
Assay type: cell-based, rat
Settings: for average length of axons: 72 hours after cell seeding
From the text: Cerebral cortical neurons were collected and cultured by a conventional method. Cerebral cortex was dissected from a fetus of a Sprague-Dawley (SD) rat (18th day of pregnancy) and recovered in ice-cooled Dulbecco's Modified Eagle Medium (DMEM) containing 10% fetal bovine serum (FBS) and 1% penicillin/streptomycin. The pia mater and blood vessels were removed, and the remaining cerebral cortex was transferred to DMEM (containing 1% penicillin/streptomycin and no FBS) and cut into small pieces having a size of 1 mm by surgical scissors. Papain (final concentration, 2 mg/ml) was added to the cell mixture, and the mixture was allowed to react at 37° C. for 30 minutes. DNase I (70 U/ml) was added to the reaction mixture and reaction was carried out for 30 seconds. Then, DMEM containing 10% FBS and 1% penicillin/streptomycin was added to terminate the reaction. The cell mixture was centrifuged at 800 rpm, the residue was re-suspended in DMEM containing 10% FBS and 1% penicillin/streptomycin, and the suspension was seeded on a dish coated with poly-L lysine (PLL). At 4 hours after the cell seeding, the medium was replaced with Neurobasal medium (containing 10% B27 supplement and 1% penicillin/streptomycin).
The cerebral cortical neurons (Example 1-1) were seeded, and the drug was added in different concentrations at 24 hours. The concentrations of methylcobalamin added were 1, 10, and 100 nM and 1, 10, and 100 μM. At 72 hours after the cell seeding, immunofluorescent staining was performed using an anti-TuJ1 antibody, and the lengths of axons (the longest neurite length per neuron) were measured. The measurement was performed on cells that were not in contact with other cells. In each evaluation, at least 30 neural axons were measured, and the mean of the obtained values was calculated and designated as a measured value.

## C/C1=C2/[N-][C@H]([C@H](CC(N)=O)[C@@]2(C)CCC(=O)NC[C@@H](C)OP(=O)([O-])O[C@H]2[C@@H](O)[C@@H](n3cnc4cc(C)c(C)cc43)O[C@@H]2CO)[C@]2(C)N=C(/C(C)=C3N=C(/C=C4N=C1[C@@H](CCC(N)=O)C\4(C)C)[C@@H](CCC(N)=O)[C@]\3(C)CC(N)=O)[C@@H](CCC(N)=O)[C@]2(C)CC(N)=O.[CH3-].[Co+3] [MeCbl, methylcobalamin]
MeCbl 1 nM
  average length of axons: 67.2 µm
MeCbl 10 nM
  average length of axons: 71.2 µm
MeCbl 100 nM
  average length of axons: 75.2 µm
MeCbl 1 μM
  average length of axons: 79.9 µm
MeCbl 1 μM, listed as methylcobalamin
  average length of axons: significantly promoted
MeCbl 10 μM
  average length of axons: 86.4 µm
MeCbl 10 μM, listed as methylcobalamin
  average length of axons: significantly promoted
MeCbl 100 μM
  average length of axons: 66.2 µm
Concentrations 1 nM to 100 μM tested
  methylcobalamin concentration at peak of axon outgrowth promotion: 10 µM
